Data taken from patent US20110251160A1 (priority 2008, published 2011).
Like-named read-outs stand apart in the source and are kept apart here. Marks after values point to notes of the source that are not given here.

Assays:
[1] = Physical properties of dabigatran etexilate; assay type: physicochemical
[2] = test system: patients with chronic atrial fibrillation; test: PETRO study, phase 2 12-week dose finding study; assay type: in vivo, human
Text: Primary endpoints were bleeding events and changes in D-dimer. […] Minor bleeding was dose related.

[3] = Clinical pharmacokinetics and pharmacodynamics of dabigatran etexilate; details: in vivo
[4] = test system: cytochrome P-450 drug metabolizing enzymes; test: Cytochrome P-450 interaction; assay type: in vitro ADME
[5] = test system: patients with atrial fibrillation
Experimental: PETRO-Ex began while the PETRO study was ongoing and investigators were initially kept blinded to patient treatment group until PETRO was completed. Unblinding investigators to patient treatment was possible thereafter.
Data were summarized descriptively; no hypothesis was to be tested. Events were analyzed on the basis of the treatment at onset. Incidences were reported as number of patients with events as well as normalized to 100 patient years on the respective treatment.
Patients who completed PETRO on 50 mg b.i.d. were switched to 150 mg q.d. upon entry in the PETRO-Ex study (N=93 patients). […] Patients who were down titrated to 50 mg q.d. based on a glomerular filtration rate ≦50 mL/min during PETRO were excluded from the long-term trial; patients down-titrated in other dose levels remained on the q.d. treatment at that dose.
The former is represented by the number of thromboembolic events per 100 years, the latter by the number of bleeding events per 100 years.

[6] = 300 mg b.i.d., listed as dabigatran etexilate
[7] = PETRO-Ex, Dabigatran etexilate All doses
[8] = PETRO-Ex, including bleeding and thrombotic events

CCCCCCOC(=O)NC(=N)c1ccc(NCc2nc3cc(C(=O)N(CCC(=O)OCC)c4ccccn4)ccc3n2C)cc1 [Dabigatran etexilate, 1-methyl-2-[N-[4-(N-n-hexyloxycarbonylamidino)phenyl]aminomethyl]benzimidazol-5-ylcarboxylic acid-N-(2-pyridyl)-N-(2-ethoxycarbonylethyl)amides]
Hygroscopicity [1]: hygroscopic | Solubility in water [1]: sparingly soluble in water | Systemic thromboembolic events, number ([2]; 50 mg b.i.d. group): 2 | Major bleeding events ([2]; 300 mg b.i.d. plus ASA groups): 6% | Major bleeding events, number ([2]; 300 mg b.i.d. plus ASA groups): Four | Minor bleeding ([2]; 50, 150 and 300 mg b.i.d.): dose related | Elevated transaminases >3×upper limit of normal (ULN) ([2]; dabigatran etexilate-treated patients, all doses): 0.9% | Elevated transaminases >3×upper limit of normal (ULN), number of patients ([2]; of 432 dabigatran etexilate-treated patients): 4 | Food interactions [3]: no food interactions | Metabolism by, induction or inhibition of cytochrome P-450 [4]: not metabolized by and does not induce or inhibit cytochrome P-450 drug metabolizing enzymes | Adverse Events leading to premature discontinuation (rate) ([5]; 50 mg b.i.d.): 21.3 per 100 patient years | Other MACE (rate) ([5]; 50 mg b.i.d.): 8.5 per 100 patient years | Stroke and Systemic Thromboembolism (rate) ([5]; 50 mg b.i.d.): 12.8 per 100 patient years | Stroke and Systemic Thromboembolism (rate) ([5]; 50 mg b.i.d., listed as dabigatran etexilate): more than 12 per 100 patient years | ALT or AST >2xULN (rate) ([5]; 150 mg b.i.d.): 3.1 per 100 patient years | ALT or AST >3xULN (rate) ([5]; 150 mg b.i.d.): 1.9 per 100 patient years | ALT or AST >3xULN and Bili >2xULN within 30 days (rate) ([5]; 150 mg b.i.d.): 0.4 per 100 patient years | ALT or AST >5xULN (rate) ([5]; 150 mg b.i.d.): 1.0 per 100 patient years | Adverse Events leading to premature discontinuation (rate) ([5]; 150 mg b.i.d.): 9.8 per 100 patient years | Fatal major bleeds, number ([5]; 150 mg b.i.d.): 4 | MI (rate) ([5]; 150 mg b.i.d.): 0.9 per 100 patient years | Major Bleeds (rate) ([5]; 150 mg b.i.d.): 4.2 per 100 patient years | Major Bleeds, of these with aspirin (rate) ([5]; 150 mg b.i.d.): 8.7 per 100 patient years | Major Bleeds, of these without aspirin (rate) ([5]; 150 mg b.i.d.): 3.2 per 100 patient years | Major bleeding events ([5]; 150 mg b.i.d.): 4.2 % per year | Other MACE (rate) ([5]; 150 mg b.i.d.): 1.0 per 100 patient years | Stroke and Systemic Thromboembolism (rate) ([5]; 150 mg b.i.d.): 1.0 per 100 patient years | TIA (rate) ([5]; 150 mg b.i.d.): 0.1 per 100 patient years | Thromboembolic events and stroke rate ([5]; 150 mg b.i.d.): 1 % per year | ALT or AST >2xULN (rate) ([5]; 150 mg q.d.): 3.4 per 100 patient years | Adverse Events leading to premature discontinuation (rate) ([5]; 150 mg q.d.): 13.7 per 100 patient years | Major Bleeds (rate) ([5]; 150 mg q.d.): 5.1 per 100 patient years | Major Bleeds, of these without aspirin (rate) ([5]; 150 mg q.d.): 6.5 per 100 patient years | Stroke and Systemic Thromboembolism (rate) ([5]; 150 mg q.d.): 5.1 per 100 patient years | Stroke and Systemic Thromboembolism (rate) ([5]; 150 mg q.d., listed as dabigatran etexilate): about 5 per 100 patient years | ALT or AST >2xULN (rate) ([5]; 300 mg b.i.d.): 4.9 per 100 patient years | ALT or AST >3xULN (rate) ([5]; 300 mg b.i.d.): 2.4 per 100 patient years | ALT or AST >5xULN (rate) ([5]; 300 mg b.i.d.): 1.2 per 100 patient years | Adverse Events leading to premature discontinuation (rate) ([5]; 300 mg b.i.d.): 25.6 per 100 patient years | Major Bleeds (rate) ([5]; 300 mg b.i.d.): 12.2 per 100 patient years | Major Bleeds, of these with aspirin (rate) ([5]; 300 mg b.i.d.): 32.7 per 100 patient years | Major Bleeds, of these without aspirin (rate) ([5]; 300 mg b.i.d.): 6.3 per 100 patient years | Major bleeding events ([5]; 300 mg b.i.d.): 12.2 % per year | Other MACE (rate) ([5]; 300 mg b.i.d.): 1.2 per 100 patient years | Stroke and Systemic Thromboembolism (rate) ([5]; 300 mg b.i.d.): 1.2 per 100 patient years | Thromboembolic events and stroke rate ([5]; 300 mg b.i.d.): 1.2 % per year | Major Bleeds (rate) [5, 6]: more than 12 per 100 patient years | Stroke and Systemic Thromboembolism (rate) [5, 6]: about 1 per 100 patient years | ALT or AST >2xULN (rate) ([5]; 300 mg q.d.): 1.5 per 100 patient years | ALT or AST >3xULN (rate) ([5]; 300 mg q.d.): 1.5 per 100 patient years | ALT or AST >3xULN and Bili >2xULN within 30 days (rate) ([5]; 300 mg q.d.): 0.5 per 100 patient years | ALT or AST >5xULN (rate) ([5]; 300 mg q.d.): 1.5 per 100 patient years | Adverse Events leading to premature discontinuation (rate) ([5]; 300 mg q.d.): 9.6 per 100 patient years | Fatal major bleeds, number ([5]; 300 mg q.d.): 1 | MI (rate) ([5]; 300 mg q.d.): 0.5 per 100 patient years | Major Bleeds (rate) ([5]; 300 mg q.d.): 2.5 per 100 patient years | Major Bleeds, of these with aspirin (rate) ([5]; 300 mg q.d.): 3.6 per 100 patient years | Major Bleeds, of these without aspirin (rate) ([5]; 300 mg q.d.): 2.1 per 100 patient years | Major bleeding events ([5]; 300 mg q.d.): 2.5 % per year | Other MACE (rate) ([5]; 300 mg q.d.): 0.5 per 100 patient years | Stroke and Systemic Thromboembolism (rate) ([5]; 300 mg q.d.): 2.5 per 100 patient years | Stroke and Systemic Thromboembolism (rate) ([5]; 300 mg q.d., listed as dabigatran etexilate): more than 2 per 100 patient years | Tolerability ([5]; 300 mg twice daily): not tolerable | Serious adverse events: cardiac disorders ([5]; PETRO-Ex): 22% | Serious adverse events: cardiac disorders, pts ([5]; PETRO-Ex): 80 | Serious adverse events: gastrointestinal disorders ([5]; PETRO-Ex): 7.8% | Serious adverse events: gastrointestinal disorders, pts ([5]; PETRO-Ex): 28 | Serious adverse events: infections ([5]; PETRO-Ex): 9.4% | Serious adverse events: infections, pts ([5]; PETRO-Ex): 34 | Serious adverse events: nervous system disorders ([5]; PETRO-Ex): 9.1% | Serious adverse events: nervous system disorders, pts ([5]; PETRO-Ex): 33 | Stroke and systemic embolism (per 100 patient years) ([5]; PETRO-Ex, Dabigatran etexilate 150 mg b.i.d.): 1.0% | Major bleeding events (per 100 patient years) ([5]; PETRO-Ex, Dabigatran etexilate 150 mg b.i.d., without concomitant aspirin): 3.2%* | LFT abnormalities >3 xULN (per 100 patient years) [5, 7]: 1.7% | Myocardial Infarction [5, 7]: 0.7% | Serious adverse events [5, 8]: 51% | Serious adverse events, patients [5, 8]: 184 | ALT or AST >2xULN (rate) ([5]; Total): 2.9 per 100 patient years | ALT or AST >3xULN (rate) ([5]; Total): 1.7 per 100 patient years | ALT or AST >3xULN and Bili >2xULN within 30 days (rate) ([5]; Total): 0.4 per 100 patient years | ALT or AST >5xULN (rate) ([5]; Total): 1.1 per 100 patient years | Adverse Events leading to premature discontinuation (rate) ([5]; Total): 11.5 per 100 patient years | MI (rate) ([5]; Total): 0.7 per 100 patient years | Major Bleeds (rate) ([5]; Total): 4.2 per 100 patient years | Major Bleeds, of these with aspirin (rate) ([5]; Total): 8.5 per 100 patient years | Major Bleeds, of these without aspirin (rate) ([5]; Total): 3.2 per 100 patient years | Other MACE (rate) ([5]; Total): 1.1 per 100 patient years | Stroke and Systemic Thromboembolism (rate) ([5]; Total): 1.9 per 100 patient years | TIA (rate) ([5]; Total): 0.1 per 100 patient years | Concomitant bilirubin elevation >2×ULN within 30 days of transaminase elevations >3×ULN ([5]; all doses): 0.4 % per year | Elevated liver transaminases, AST or ALT >3×ULN ([5]; all doses): 1.7 % per year | Fatal intracranial bleeds, number ([5]; all doses): Three | Fatal major bleeds, number ([5]; all doses): Five | Transaminases (AST or ALT) >5×ULN ([5]; all doses): 1.1 % per year | Major bleed rate ([5]; doses ≦150 mg/day (150 mg q.d. combined with 50 mg b.i.d.)): 3.7 % per year | Bleeding event rate ([5]; on concomitant aspirin): 8.5 % per year | Stroke or systemic thromboembolic event rates ([5]; the two highest doses): approximately 1 % per year | Bleeding event rate ([5]; without concomitant aspirin): 3.2 % per year | Annualized thromboembolic event rate ([5]; ≦150 mg/day): over 5.0 per 100 patient years
